A word on the Ki: it is the equilibrium dissociation constant of an inhibitor or competing ligand from its target. As a reminder, the IC50 is the point on the concentration scale where inhibition reaches its midpoint.

Consider eleven molecules from patent US11981673B1, “7-isopropyl 1,2-dimethyl 3-(substituted benzoyl)indolizine-1,2,7 tricarboxylates as adenosine receptor active compounds” (KING FAISAL UNIVERSITY, priority 2023, dated 2024).

The target of one assay is T1, human A3R (Homo sapiens, UniProt P0DMS8).
T1 construct: expressed in transfected cells; host or cells: CHO cells
T1 sequence (P0DMS8 1-318): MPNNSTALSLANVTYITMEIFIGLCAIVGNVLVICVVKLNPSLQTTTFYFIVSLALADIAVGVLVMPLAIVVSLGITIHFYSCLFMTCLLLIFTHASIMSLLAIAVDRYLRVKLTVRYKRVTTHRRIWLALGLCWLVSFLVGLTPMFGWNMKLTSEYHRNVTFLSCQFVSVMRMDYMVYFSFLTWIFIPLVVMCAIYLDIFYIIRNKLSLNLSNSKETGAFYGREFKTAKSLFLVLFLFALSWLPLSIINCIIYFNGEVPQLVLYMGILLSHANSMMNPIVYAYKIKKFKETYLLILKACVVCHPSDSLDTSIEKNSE
The assay can be described thus: Displacement of specific [3H]-HEMADO binding at human A3R expressed in CHO cells. The conditions noted are these: [3H]-HEMADO displacement, means ± SE, read-out: hA3R (Ki nM).

Another assay concerns the target T2, hA2BR (Homo sapiens, UniProt P29275).
T2 construct: expressed in transfected cells; host or cells: cells stably expressing the receptor and the GloSensor biosensor (CHO)
T2 sequence (P29275 1-332): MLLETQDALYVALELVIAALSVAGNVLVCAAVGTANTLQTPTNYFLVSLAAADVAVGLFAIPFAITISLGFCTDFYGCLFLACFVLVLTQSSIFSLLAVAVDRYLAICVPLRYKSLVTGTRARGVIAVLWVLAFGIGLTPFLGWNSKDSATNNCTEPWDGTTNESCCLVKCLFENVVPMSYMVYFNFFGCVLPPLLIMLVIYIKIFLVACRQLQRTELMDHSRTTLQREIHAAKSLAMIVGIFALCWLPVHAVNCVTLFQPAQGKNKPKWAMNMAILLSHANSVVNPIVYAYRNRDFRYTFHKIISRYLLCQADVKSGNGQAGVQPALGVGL
The assay can be described thus: Inhibition of NECA-stimulated adenylyl cyclase activity in CHO cells expressing hA2BR (GloSensor cAMP assay). Type of assay: cell-based. The settings on record: means ± SE. On the procedure: The activity of compounds understudy was evaluated using the GloSensor™ (Promega Corporation) cAMP assay, which is a new non-radioactive method offering a simple approach to monitor GPCR activity through change in the intracellular cAMP concentration. This assay uses a mutant form of Photinus pyralis luciferase into which a cAMP-binding protein moiety has been inserted. The binding with cAMP triggers a biosensor conformational change that leads to an increase of light output allowing to evaluate the activity of ligands at the receptor under study. Following pre-equilibration with a substrate, cells stably expressing both the receptor of interest and the biosensor can be used to evaluate GPCR function enabling easy kinetic measurements of cAMP accumulation or turnover in living cells.
The antagonist profile of the compounds on A2BR was evaluated by assessing their ability to counteract the agonist NECA-induced increase of cAMP accumulation. After 2 hours of equilibration in reaction medium cells were incubated in 384 well plate (10 minutes at room temperature) with 3 μL of different antagonist concentrations and then treated with 3 μL of a fixed dose of NECA. After another 10 minutes of incubation various luminescence reads were performed at different incubation times.
A general note: Cyclic AMP is a second messenger, typically raised through Gs and lowered through Gi signalling.

The target of the next assay is T3, human A2AR (Homo sapiens, UniProt P29274).
T3 construct: expressed in transfected cells; host or cells: CHO cells
The assay can be described thus: Displacement of specific [3H]-NECA binding at human A2AR expressed in CHO cells. The conditions noted are these: [3H]-NECA displacement, means ± SE, read-out: hA2AR (Ki nM).

The target in the next assay is T4, human A1R (Homo sapiens, UniProt P30542).
T4 construct: expressed in transfected cells; host or cells: CHO cells
T4 sequence (P30542 1-326): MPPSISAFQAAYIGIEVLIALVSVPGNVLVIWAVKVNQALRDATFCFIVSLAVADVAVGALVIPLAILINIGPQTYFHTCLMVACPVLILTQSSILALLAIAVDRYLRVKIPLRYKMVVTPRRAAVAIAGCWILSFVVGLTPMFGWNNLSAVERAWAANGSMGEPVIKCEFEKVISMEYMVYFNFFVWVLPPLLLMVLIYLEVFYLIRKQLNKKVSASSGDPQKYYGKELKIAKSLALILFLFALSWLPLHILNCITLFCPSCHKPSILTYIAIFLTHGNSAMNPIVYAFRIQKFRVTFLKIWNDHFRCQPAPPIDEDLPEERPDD
The assay can be described thus: Displacement of specific [3H]-CCPA binding at human A1R expressed in CHO cells. The settings on record: [3H]-CCPA displacement, means ± SE, read-out: hA1R (Ki nM).

T3 sequence (P29274 whole entry): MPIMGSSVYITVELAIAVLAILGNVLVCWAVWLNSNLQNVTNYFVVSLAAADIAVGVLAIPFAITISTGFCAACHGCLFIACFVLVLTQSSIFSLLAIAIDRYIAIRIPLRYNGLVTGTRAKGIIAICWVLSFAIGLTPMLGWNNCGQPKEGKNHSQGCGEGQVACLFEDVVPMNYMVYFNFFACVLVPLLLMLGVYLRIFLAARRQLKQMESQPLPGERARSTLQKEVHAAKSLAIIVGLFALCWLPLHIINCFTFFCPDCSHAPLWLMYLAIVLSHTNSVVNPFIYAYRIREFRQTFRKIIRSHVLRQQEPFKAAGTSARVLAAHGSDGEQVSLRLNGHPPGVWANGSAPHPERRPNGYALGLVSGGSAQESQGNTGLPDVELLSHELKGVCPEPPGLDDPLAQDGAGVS

With `COC(=O)c1c(C(=O)OC)c2cc(C(=O)OC(C)C)ccn2c1C(=O)c1ccccc1` [KNV-ISP1, 7-Isopropyl 1,2-dimethyl 3-benzoylindolizine-1,2,7-tricarboxylate], the inhibitory constant (Ki) on human A3R is 2200 ± 313 nM; on human A2AR, 2690 ± 631 nM; at human A1R it was 1640 ± 37 nM. The molecule further yielded an IC50 on hA2BR of more than 30000 nM.

Take `CCOC(=O)c1cc(C(=O)c2ccccc2)n2ccc(C(=O)OC(C)C)cc12` [KNV-ISP2, 1-Ethyl 7-isopropyl 3-benzoylindolizine-1,7-dicarboxylate]: the inhibitory constant (Ki) is 3640 ± 837 nM at human A3R, more than 30000 nM on human A2AR and 7050 ± 706 nM on human A1R. For the same molecule, the IC50 against hA2BR was more than 30000 nM.

Take `COC(=O)c1c(C(=O)OC)c2cc(C(=O)OC(C)C)ccn2c1C(=O)c1ccc(F)cc1` [KNV-ISP3, 7-Isopropyl 1,2-dimethyl 3-(4-fluorobenzoyl)indolizine-1,2,7-tricarboxylate]: the Ki at human A3R amounted to 1400 ± 348 nM; on human A2AR, 3950 ± 695 nM; at human A1R it was 2710 ± 388 nM. Further, the IC50 against hA2BR was more than 30000 nM.

As for `CCOC(=O)c1cc(C(=O)c2ccc(F)cc2)n2ccc(C(=O)OC(C)C)cc12` [KNV-ISP4, 1-Ethyl 7-isopropyl 3-(4-fluorobenzoyl)indolizine-1,7-dicarboxylate], the values for the Ki on human A3R, at human A2AR and at human A1R were 665 ± 26 nM, more than 30000 nM and 6980 ± 577 nM, respectively. On hA2BR, the IC50 is more than 30000 nM.

For `COC(=O)c1c(C(=O)OC)c2cc(C(=O)OC(C)C)ccn2c1C(=O)c1ccc(Cl)cc1` [KNV-ISP5, 7-Isopropyl 1,2-dimethyl 3-(4-chlorobenzoyl)indolizine-1,2,7-tricarboxylate], the Ki at human A3R came to 7597 ± 29 nM; on human A2AR it was 7400 ± 833 nM; on human A1R, 3712 ± 12 nM. The molecule also gave an IC50 against hA2BR of more than 30000 nM.

`CCOC(=O)c1cc(C(=O)c2ccc(Cl)cc2)n2ccc(C(=O)OC(C)C)cc12` [KNV-ISP6, 1-Ethyl 7-isopropyl 3-(4-chlorobenzoyl)indolizine-1,7-dicarboxylate]: the inhibitory constant (Ki) at human A3R was 14300 ± 480 nM; on human A2AR it was more than 30000 nM; at human A1R it was more than 30000 nM. At hA2BR, this molecule had an IC50 of more than 30000 nM.

Take `COC(=O)c1c(C(=O)OC)c2cc(C(=O)OC(C)C)ccn2c1C(=O)c1ccc(Br)cc1` [KNV-ISP7, 7-Isopropyl 1,2-dimethyl 3-(4-bromobenzoyl)indolizine-1,2,7-tricarboxylate]: the inhibitory constant (Ki) at human A3R is 1220 ± 339 nM; at human A2AR, 14900 ± 3750 nM; on human A1R, 5410 ± 711 nM. The same molecule displayed an IC50 at hA2BR of more than 30000 nM.

Turning to `CCOC(=O)c1cc(C(=O)c2ccc(Br)cc2)n2ccc(C(=O)OC(C)C)cc12` [KNV-ISP8, 1-Ethyl 7-isopropyl 3-(4-bromobenzoyl)indolizine-1,7-dicarboxylate], the Ki at human A3R is 1680 ± 283 nM; on human A2AR, more than 30000 nM; at human A1R, more than 30000 nM. The molecule further displayed an IC50 against hA2BR of more than 30000 nM.

On to `COC(=O)c1c(C(=O)OC)c2cc(C(=O)OC(C)C)ccn2c1C(=O)c1ccc(C#N)cc1` [KNV-ISP9, 7-Isopropyl 1,2-dimethyl 3-(4-cyanobenzoyl)indolizine-1,2,7-tricarboxylate], for which the inhibitory constant (Ki) at human A3R was 6210 ± 338 nM; at human A2AR, 10300 ± 1340 nM; at human A1R it was more than 30000 nM. For the same molecule, the IC50 on hA2BR was more than 30000 nM.

On to `CCOC(=O)c1cc(C(=O)c2ccc(C#N)cc2)n2ccc(C(=O)OC(C)C)cc12` [KNV-ISP10, 1-Ethyl 7-isopropyl 3-(4-cyanobenzoyl)indolizine-1,7-dicarboxylate], for which the figures for the Ki at human A3R, at human A2AR and on human A1R were 7670 ± 1730 nM, more than 30000 nM and more than 30000 nM, respectively. Moreover, at hA2BR, the IC50 was more than 30000 nM.

For `COC(=O)c1c(C(=O)OC)c2cc(C(=O)OC(C)C)ccn2c1C(=O)c1ccc(C)cc1` [KNV-ISP11, 7-Isopropyl 1,2-dimethyl 3-(4-methylbenzoyl)indolizine-1,2,7-tricarboxylate], the Ki worked out at 1600 ± 14 nM on human A3R, 2921 ± 13 nM on human A2AR and 692 ± 41 nM on human A1R. Besides, the IC50 against hA2BR is more than 30000 nM.
